US6491729B1

Assays:
[1] = degree of cleaning fabrics: Lab differences, whiteness and yellowness index of soil test cloth
Method: In the tests of the degree of cleaning fabrics in Examples 1 to 9, four kinds of standard soil test cloths are taken, the types of the cloth are respectively polyester, cotton, wool, polyester/cotton. The conditions of the tests of degree of cleaning fabrics are similar to those of the above dry-cleaning tests. After the soil test cloths have been dry cleaned, the reflectance, the whiteness index and the yellowness index thereof are measured by means of a color matching system to identify the degree of cleaning fabrics of the dry-cleaning solvents.
After the soil test cloths of polyester/cotton, wool, cotton and polyester are respectively dry-cleaned with the dry-cleaning solvents, the degrees of cleaning the soil test cloths of the dry-cleaning solvents is measured. The dry-cleaning procedure is carried out under the conditions that temperature is 25±2° C., liquid ratio is 1:40 and dry cleaning time is 30 minutes in a shaking manner and then the soil test cloths which have been dry-cleaned are dried under the temperature of 60±2° C.
Color differences can be analyzed according to Munsell Color Solid Theory and a bright and a chroma of a hue can be decided by means of a solid rectangular coordinate.
According to an opponent-color coordinate recommended by the CIE (Commission International de I'Eclairage) Society in 1976, wherein a redness-greenness coordinate is set to be the “a” coordinate with redness as a positive value and greenness as a negative together with a yellowness-blueness coordinate forms the “b” coordinate wherein yellowness indicates a positive value and blueness indicates a negative value, the two sets of coordinates form a two dimensional coordinate further with a third coordinate which indicates the bright to form the opponent-color coordinate designed by the CIE Lab, a bright value “L” in the third coordinate, a chroma value “a” in the redness-greenness coordinate and a chroma value “b” in the yellowness-blueness coordinate are related to red, blue, green tristimulus values as shown in the following:
ΔE=((ΔL)^2+(Δa)^2+(Δb)^2)^½
In FIG. 1, Δc indicates the chroma difference between a chroma value of a specimen sample and a chroma value of a standard sample, and Δh indicates the hue angle difference. By means of the analysis of chroma difference and hue angle difference, the two values Δc and Δh, can be easily obtained.

[2] = physical properties of the solvent; conditions: Table 1
[3] = soil test cloth of cotton, dry cleaned five times
[4] = soil test cloth of cotton, dry cleaned one time
[5] = soil test cloth of cotton, dry cleaned two times
[6] = soil test cloth of polyester/cotton, dry cleaned five times
[7] = soil test cloth of polyester/cotton, dry cleaned one time
[8] = soil test cloth of polyester/cotton, dry cleaned two times
[9] = soil test cloth of polyester, dry cleaned five times
[10] = soil test cloth of polyester, dry cleaned one time
[11] = soil test cloth of polyester, dry cleaned two times
[12] = soil test cloth of wool, dry cleaned five times
[13] = soil test cloth of wool, dry cleaned one time
[14] = soil test cloth of wool, dry cleaned two times

SMILES: ClC(Cl)=C(Cl)Cl [perchloroethylene]
- ΔE [1, 3]: 2.88
- ΔL [1, 3]: 2.8
- Δa [1, 3]: −0.02
- Δb [1, 3]: −0.68
- Δc [1, 3]: −0.66
- Δh [1, 3]: 0.16
- yellowness index ([1]; soil test cloth of cotton, dry cleaned five times, before dry cleaned 3.85): 2.18
- whiteness index ([1]; soil test cloth of cotton, dry cleaned five times, before dry cleaned 39.47): 45.97
- ΔE [1, 4]: 4.27
- ΔL [1, 4]: 4.22
- Δa [1, 4]: −0.02
- Δb [1, 4]: −0.61
- Δc [1, 4]: −0.6
- Δh [1, 4]: 0.14
- yellowness index ([1]; soil test cloth of cotton, dry cleaned one time, before dry cleaned 3.85): 2.31
- whiteness index ([1]; soil test cloth of cotton, dry cleaned one time, before dry cleaned 39.47): 47.96
- ΔE [1, 5]: 4.09
- ΔL [1, 5]: 4.04
- Δa [1, 5]: −0.04
- Δb [1, 5]: −0.64
- Δc [1, 5]: −0.62
- Δh [1, 5]: 0.18
- yellowness index ([1]; soil test cloth of cotton, dry cleaned two times, before dry cleaned 3.85): 2.23
- whiteness index ([1]; soil test cloth of cotton, dry cleaned two times, before dry cleaned 39.47): 47.78
- ΔE [1, 6]: 2.83
- ΔL [1, 6]: 2.8
- Δa [1, 6]: −0.06
- Δb [1, 6]: −0.4
- Δc [1, 6]: −0.39
- Δh [1, 6]: 0.13
- yellowness index ([1]; soil test cloth of polyester/cotton, dry cleaned five times, before dry cleaned 3.41): 2.33
- whiteness index ([1]; soil test cloth of polyester/cotton, dry cleaned five times, before dry cleaned 37.82): 43.16
- ΔE [1, 7]: 3.29
- ΔL [1, 7]: 3.26
- Δa [1, 7]: −0.04
- Δb [1, 7]: −0.41
- Δc [1, 7]: −0.4
- Δh [1, 7]: 0.11
- yellowness index ([1]; soil test cloth of polyester/cotton, dry cleaned one time, before dry cleaned 3.41): 2.32
- whiteness index ([1]; soil test cloth of polyester/cotton, dry cleaned one time, before dry cleaned 37.82): 43.87
- ΔE [1, 8]: 3.96
- ΔL [1, 8]: 3.94
- Δa [1, 8]: −0.07
- Δb [1, 8]: −0.43
- Δc [1, 8]: −0.41
- Δh [1, 8]: 0.15
- yellowness index ([1]; soil test cloth of polyester/cotton, dry cleaned two times, before dry cleaned 3.41): 2.23
- whiteness index ([1]; soil test cloth of polyester/cotton, dry cleaned two times, before dry cleaned 37.82): 44.96
- ΔE [1, 9]: 5.67
- ΔL [1, 9]: 5.26
- Δa [1, 9]: −0.14
- Δb [1, 9]: −0.14
- Δc [1, 9]: 0.15
- Δh [1, 9]: −0.13
- whiteness index ([1]; soil test cloth of polyester, dry cleaned five times, before dry cleaned 45.11): 55.02
- yellowness index ([1]; soil test cloth of polyester, dry cleaned five times, before dry cleaned −10.35): −10.21
- ΔE [1, 10]: 6.68
- ΔL [1, 10]: 6.68
- Δa [1, 10]: −0.19
- Δb [1, 10]: 0.07
- Δc [1, 10]: −0.06
- Δh [1, 10]: −0.19
- whiteness index ([1]; soil test cloth of polyester, dry cleaned one time, before dry cleaned 45.11): 56.16
- yellowness index ([1]; soil test cloth of polyester, dry cleaned one time, before dry cleaned −10.35): −9.61
- ΔE [1, 11]: 7.61
- ΔL [1, 11]: 7.6
- Δa [1, 11]: −0.17
- Δb [1, 11]: −0.2
- Δc [1, 11]: 0.21
- Δh [1, 11]: −0.16
- whiteness index ([1]; soil test cloth of polyester, dry cleaned two times, before dry cleaned 45.11): 58.86
- yellowness index ([1]; soil test cloth of polyester, dry cleaned two times, before dry cleaned −10.35): −10.22
- ΔE [1, 12]: 1.9
- ΔL [1, 12]: −1.66
- Δa [1, 12]: −0.1
- Δb [1, 12]: −0.93
- Δc [1, 12]: −0.9
- Δh [1, 12]: 0.27
- yellowness index ([1]; soil test cloth of wool, dry cleaned five times, before dry cleaned 11.22): 9
- whiteness index ([1]; soil test cloth of wool, dry cleaned five times, before dry cleaned 22.57): 23.54
- ΔE [1, 13]: 2.1
- ΔL [1, 13]: −2.1
- Δa [1, 13]: −0.04
- Δb [1, 13]: −0.03
- Δc [1, 13]: −0.03
- Δh [1, 13]: 0.05
- yellowness index ([1]; soil test cloth of wool, dry cleaned one time, before dry cleaned 11.22): 11.37
- whiteness index ([1]; soil test cloth of wool, dry cleaned one time, before dry cleaned 22.57): 20.62
- ΔE [1, 14]: 2.09
- ΔL [1, 14]: −1.91
- Δa [1, 14]: −0.09
- Δb [1, 14]: −0.83
- Δc [1, 14]: −0.8
- Δh [1, 14]: 0.23
- yellowness index ([1]; soil test cloth of wool, dry cleaned two times, before dry cleaned 11.22): 9.3
- whiteness index ([1]; soil test cloth of wool, dry cleaned two times, before dry cleaned 22.57): 22.99
- increase of whiteness index ([1]; soil test cloth of wool, times not stated): does not change appreciably
- Dangerousness (dangerousness (Table 1)): medium toxicity
- Boiling point [2]: 121 °C
- Solubility [2]: Insoluble in water,
- Specific gravity [2]: 1.625
